Experimental data: patent US5780505A, “Substituted N-arylmethylamino derivatives of cyclobutene-3, 4-diones” (American Home Products Corporation, priority 1997, dated 1998)

Test system: Isolated Rat Bladder Strips
Assay: Inhibition of contractions in isolated rat bladder strips (KCl-enhanced contractile activity; smooth muscle relaxation)
Format: cell-based, Sprague-Dawley rats
Conditions: for percent contraction at 30 µM / inhibition at 30 µM: Rattus norvegicus; for percent contraction at 30 µM / IC50: 0.5 h; for percent contraction at 30 µM: read-out: Percent contraction at 30 μM (C); for inhibition at 30 µM: read-out: Percent inhibition at 30 μM (I); for IC50: isolated rat bladder strips, 15 mM additional KCl, 30 minute challenge, read-out: IC50 (50% inhibition of pre-drug contractile activity)
Text: The smooth muscle relaxing activity of the compounds of this invention was established in accordance with standard pharmaceutically accepted test procedures with representative compounds as follows:
Sprague-Dawley rats (150-200 g) are rendered unconscious by CO2 asphyxiation and then euthanized by cervical dislocation. The bladder is removed into warm (37 deg.C) physiological salt solution (PSS) of the following composition (mM): NaCl, 118.4; KCl, 4.7; CaCl2, 2.5; MgSO4, 4.7; H2 O, 1,2; NaHCO3, 24.9; KH2 PO4, 1,2; glucose, 11.1; EDTA, 0.023; gassed with […]; pH 7.4. The bladder is opened and then dut into strips 1-2 mm in width and 7-10 mm in length. The strips are subsequently suspended in a 10 mL tissue bath under an initial resting tension of 1.5 g. The strips are held in place by two surgical clips one of which is attached to a fixed hook while the other is attached to an isometric force transducer. […] The carbachol is then washed out and the tissue allowed to relax to its resting level of activity. Following a further 30 min period of recovery an additional 15 mM KCl are introduced into the tissue bath. This increase in KCl concentration results in a large increase in the amplitude of spontaneous contractions (and initiation of contractions in previously quiescent strips) superimposed upon a small increase in basal tone. Following stabilization of this enhanced level of contractile activity, incremental increases in the concentration of test compound or vehicle are introduced into the tissue bath. Contractile activity is measured for each compound or vehicle concentration during the last minute of a 30 minute challenge.
The isometric force developed by the bladder strips is measured using a […] to elicit 50% inhibition of pre-drug contractile activity (IC50 concentration) and is calculated from this concentration-response curve.

**Q.** Which results are given for `COc1cccc(C)c1CNc1c(N[C@H](C)C(C)(C)C)c(=O)c1=O` [Example 57, 3-(2-Methoxy-6-methyl-benzylamino)-4-(1,2,2-trimethyl-propylamino)-cyclobut-3-ene-1,2-dione]?
**A.** percent contraction at 30 µM: 160%; inhibition at 30 µM: 29.3 ± 2.3%

**Q.** `CCC(C)(C)Nc1c(NCc2ccc(F)cc2Cl)c(=O)c1=O` [Example 63, 3-(2-Chloro-4-fluoro-benzylamino)-4-(1,1-dimethyl-propylamino)-cyclobut-3-ene-1,2-dione] was tested. Which IC50 did it give?
**A.** 1.5 ± 1 µM

**Q.** `Cc1ccc(C)c(CNc2c(NC(C)(C)C)c(=O)c2=O)c1` [Example 95, 3-(t-Butylamino)-4-(2.5-dimethyl-benzylamino)-cyclobut-3-ene-1,2-dione] was tested. Which IC50 did it give?
**A.** 1.5 ± 0.3 µM

**Q.** With `CCCC(=O)N(Cc1ccc(C#N)cc1Cl)c1c(NC(C)(C)CC)c(=O)c1=O` [Example 78] as the compound, how does the IC50 read?
**A.** 2.8 ± 1.3 µM

**Q.** What about the percent contraction at 30 µM of the same compound?
**A.** 28.5 ± 8.7%

**Q.** And the inhibition at 30 µM?
**A.** 18 ± 6.5%

**Q.** `CCC(C)(C)Nc1c(NCc2c(C)cc(C)cc2Cl)c(=O)c1=O` [Example 40, 3-(2-Chloro-4,6-dimethyl-benzylamino)-4-(1,1-dimethyl-propylamino)-cyclobut-3-ene-1,2-dione] was tested. Which IC50 did it give?
**A.** 0.2 ± 0.08 µM

**Q.** With `Cc1cc(C#N)cc(CNc2c(NC(C)(C)C)c(=O)c2=O)c1` [Example 16, 3-[(2-tert-Butylamino-3,4-dioxo-cyclobut-1-enylamino)-methyl]-5-methyl-benzonitrile] as the compound, how does the IC50 read?
**A.** 2.9 ± 0.1 µM

**Q.** How did the IC50 turn out when `COc1cc(C#N)ccc1CNc1c(N[C@H](C)C(C)(C)C)c(=O)c1=O` [Example 56, 4-{[3,4-Dioxo-2-(1,2,2-trimethyl-propylamino)-cyclobut-1-enylamino]-methyl}-3-methoxy-benzonitrile] was run?
**A.** 0.95 ± 0.75 µM

**Q.** How did the IC50 turn out when `CC(C)(C)Nc1c(NCc2cccc(Cl)c2Cl)c(=O)c1=O` [Example 100, 3-(t-Butylamino)-4-(2,3-dichloro-benzylamino)-cyclobut-3-ene-1,2-dione] was run?
**A.** 1.24 ± 0.17 µM

**Q.** Which IC50 does the source give for `CCC(C)(C)Nc1c(NCc2c(C)cc(C#N)cc2Cl)c(=O)c1=O` [Example 33, 3-Chloro-4-{[2-(1,1-dimethyl-propylamino)-3,4-dioxo-cyclobut-1-enylamino]-methyl}-5-methyl-benzonitrile] here?
**A.** 0.16 ± 0.01 µM

**Q.** With `CCC(C)(C)Nc1c(N(Cc2ccc(C#N)cc2Cl)C(C)=O)c(=O)c1=O` [Example 77, N-(2-Chloro-4-cyano-benzyl)-N-[2-(1,1-dimethyl-propylamino)-3,4-dioxo-cyclobut-1-enyl)-acetamide] as the compound, how does the IC50 read?
**A.** 2.2 ± 0.95 µM

**Q.** What about the inhibition at 30 µM of the same compound?
**A.** 25%

**Q.** With `CC(C)(C)Nc1c(NCc2ccc(F)cc2C(F)(F)F)c(=O)c1=O` [Example 59, 3-tert-Butylamino-4-(4-fluoro-2-trifluoromethyl-benzylamino)-cyclobut-3-ene-1,2-dione] as the compound, how does the IC50 read?
**A.** 1.8 ± 0.6 µM

**Q.** What does the source list for `CCc1cccc(C)c1CNc1c(NC(C)(C)C)c(=O)c1=O` [Example 58, 3-tert-Butylamino-4-(2-ethyl-6-methyl-benzylamino)-cyclobut-3-ene-1,2-dione]?
**A.** IC50: 2.3 ± 0.24 µM; inhibition at 30 µM: 25%

**Q.** `CCC(CC)Nc1c(NCc2ccc(OC)c(OC)c2)c(=O)c1=O` [Example 14, 3-(3,4-Dimethoxy-benzylamino)-4-(1-ethyl-propylamino)-cyclobut-3-ene-1,2-dione] was tested. Which percent contraction at 30 µM did it give?
**A.** 54%

**Q.** What about the inhibition at 30 µM of the same compound?
**A.** 27.2 ± 2.4%

**Q.** For `Cc1cc(C)c(CNc2c(NC(C)(C)C)c(=O)c2=O)c(Cl)c1` [Example 39, 3-tert-Butylamino-4-(2-chloro-4,6-dimethyl-benzylamino)-cyclobut-3-ene-1,2-dione], which IC50 is on record?
**A.** 0.71 ± 0.5 µM

**Q.** With `CCC(C)(C)Nc1c(NCc2cc(Cl)cc(Cl)c2)c(=O)c1=O` [Example 88, 3-(3,5-Dichloro-benzylamino)-4-(1,1-dimethyl-propylamino)-cyclobut-3-ene-1,2-dione] as the compound, how does the IC50 read?
**A.** 7.3 ± 6 µM

**Q.** `CCc1cc(Br)ccc1CNc1c(N[C@H](C)C(C)(C)C)c(=O)c1=O` [Example 47, 3-(4-Bromo-2-ethyl-benzylamino)-4-(1,2,2-trimethyl-propylamino)-cyclobut-3-ene-1,2-dione] was tested. Which IC50 did it give?
**A.** 16.7 ± 6.2 µM

**Q.** Which IC50 does the source give for `CC(C)(C)Nc1c(NCc2cc(F)ccc2F)c(=O)c1=O` [Example 21, 3-tert-Butylamino-4-(2,5-difluoro-benzylamino)-cyclobut-3-ene-1,2-dione] here?
**A.** 3.9 ± 1.1 µM

**Q.** How did the IC50 turn out when `CCc1cc(C#N)ccc1CNc1c(NC(C)(C)CC)c(=O)c1=O` [Example 50, 4-[(1,1-Dimethyl-propylamino-3,4-dioxo-cyclobut-1-enylamino)-methyl]-3-ethyl-benzonitrile] was run?
**A.** 0.105 ± 0.005 µM

**Q.** Which IC50 does the source give for `C[C@@H](Nc1c(NCc2cc(F)ccc2Cl)c(=O)c1=O)C(C)(C)C` [Example 65, 3-(2-Chloro-5-fluoro-benzylamino)-4-(1,2,2-trimethyl-propylamino)-cyclobut-3-ene-1,2-dione] here?
**A.** 0.85 ± 0.41 µM

**Q.** How did the IC50 turn out when `CC(C)(C)Nc1c(NCc2cc(F)cc(F)c2)c(=O)c1=O` [Example 71, 3-tert-Butyl amino-4-(3,5-difluoro-benzylamino)-cyclobut-3-ene-1,2-dione] was run?
**A.** 2.6 ± 0.4 µM

**Q.** Which IC50 does the source give for `CCc1cc(Br)ccc1CNc1c(NC(C)(C)C)c(=O)c1=O` [Example 48, 3-(4-Bromo-2-ethyl-benzylamino)-4-tert-butylamino-cyclobut-3-ene-1,2-dione] here?
**A.** 0.27 ± 0.08 µM

**Q.** Which IC50 does the source give for `CC(C)(C)Nc1c(NCc2ccc(F)c(Cl)c2)c(=O)c1=O` [Example 67, 3-tert-Butylamino-4-(3-chloro-4-fluoro-benzylamino)-cyclobut-3-ene-1,2-dione] here?
**A.** 5.3 ± 1.2 µM

**Q.** And the inhibition at 30 µM?
**A.** 47.7%

**Q.** For `Cc1cc(C#N)cc(CNc2c(NC(C)C(C)(C)C)c(=O)c2=O)c1` (centres unmarked) [Example 12, 3-{[3,4-Dioxo-2-(1,2,2-trimethyl-propylamino)-cyclobut-1-enylamino]-methyl}-5-methyl-benzonitrile], which IC50 is on record?
**A.** 6.6 ± 1.6 µM

**Q.** And the inhibition at 30 µM?
**A.** 37 ± 0.7%

**Q.** With `CCC(C)(C)Nc1c(NCc2ccc(F)cc2F)c(=O)c1=O` [Example 62, 3-(2,4-Difluoro-benzylamino)-4-(1,1-dimethyl-propylamino)-cyclobut-3-ene-1,2-dione] as the compound, how does the IC50 read?
**A.** 0.22 ± 0.04 µM

**Q.** With `C[C@@H](Nc1c(NCc2ccc(C#N)c(Cl)c2)c(=O)c1=O)C(C)(C)C` [Example 42, 2-Chloro-4-{[3,4-dioxo-2-(1,2,2-trimethyl-pronylamino)-cyclobut-1-enylamino]-methyl}-benzonitrile] as the compound, how does the IC50 read?
**A.** 4.7 ± 1.2 µM

**Q.** `CCc1cc(Br)ccc1CNc1c(NC(C)(C)CC)c(=O)c1=O` [Example 49, 3-(4-Bromo-2-ethyl-benzylamino)-4-(1,1-dimethyl-propylamino)-cyclobut-3-ene-1,2-dione] was tested. Which IC50 did it give?
**A.** 1 ± 0.6 µM

**Q.** How did the inhibition at 30 µM turn out when `Cc1cc(C)c(CNc2c(NCC(F)(F)C(F)(F)F)c(=O)c2=O)c(Cl)c1` [Example 41, 3-(2-Chloro-4,6-dimethyl-benzylamino)-4-(2,2,3,3,3-pentafluoro-propylamino)-cyclobut-3-ene-1,2-dione] was run?
**A.** 41 ± 2.9%

**Q.** Which IC50 does the source give for `Cc1ccc(CNc2c(NC(C)(C)C)c(=O)c2=O)cc1C` [Example 84, 3-tert-Butylamino-4-(3,4-dimethyl-benzylamino)-cyclobut-3-ene-1,2-dione] here?
**A.** 1.6 ± 0.18 µM

**Q.** For `C[C@@H](Nc1c(NCc2cc(F)ccc2F)c(=O)c1=O)C(C)(C)C` [Example 66, 3-(2.5-Difluoro-benzylamino)-4-(1,2,2-trimethyl-propylamino)-cyclobut-3-ene-1,2-dione], which IC50 is on record?
**A.** 0.98 ± 0.4 µM

**Q.** With `CCc1cc(C#N)ccc1CNc1c(NC(CC)CC)c(=O)c1=O` [Example 26] as the compound, how does the IC50 read?
**A.** 5.2 ± 0.6 µM
